In brackets after ≈: the same amount, converted by molar mass. Where two headings read alike, the source gives them in different places.
Key:
Assay type in all cases: cell-based, Mycobacterium abscessus
M. abscessus ATCC 19977 = assay: MIC assay in 96-well plate format, wild-type strain
How it was run: (§1)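 Two-fold, ten-point dilutions in 7H9 with 2% DMSO; mid-log culture diluted to OD600=0.1 (1×10^7 CFU/mL). Incubated 3 days at 37 °C, shaking 110 RPM; growth = Day 3 minus Day 0 OD600, expressed as percentage of drug-free growth and plotted against concentration. Two biological replicates.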

M. abscessus Bamboo [1] = assay: Caseum surrogate MBC90 (cMBC90) kill assay; settings: for MBC: read-out: cMBC90
From the text: (§2) The surrogate matrix was generated as described previously from cultured THP-1 cells (ATCC TIB-202) (mBio, 2023, 14, e0059823). M. abscessus exponential cultures grown in Middlebrook 7H9 broth (Sigma Aldrich) (OD600 0.6-0.9) were spun down and resuspended in water to an OD600 of 7, 0.7, and 0.07. As described for the M. tuberculosis caseum surrogate assay (mnBio, 2023, 14, e0059823), the bacterial suspensions (at three different dilutions resulting in ˜10^9, 10^8, and 10^7 starting CFU/mL, represented by circle, square, and triangle indicators respectively) were added to the caseum surrogate in the ratio 2:1 (vol/wt), briefly homogenized with 1.4-mm zirconia beads, divided evenly into nine 1.5-mL microcentrifuge tubes, and incubated as standing cultures at 37° C. At the indicated time points, tubes were removed and used for CFU enumeration by plating on Middlebrook 7H11 agar (Sigma Aldrich). Separate tubes were used at each time point. To determine the kill curves, cultures with a starting CFU/mL of 10^8 were used (resulting in the middle curve with square indicators). Arrows indicate the time points when drugs were added and the end of the treatment. The experiment was repeated three times independently, yielding similar results. A representative example is shown. Dots and error bars represent means and standard deviations of three technical replicates, respectively.
FIGS. 29A-29M show the Dose-response kill curves against M. abscessus Bamboo in caseum surrogate. M. abscessus cultures were set up as described in the legend of FIG. 28. Bacterial cell suspensions were added to yield a starting CFU of 10^8/mL (FIG. 28, middle growth curve with square indicators). […] The shaded areas indicate drug concentration windows achieved in caseum in vivo. (Antimicrob. Agents Chemother., 2021, 65, e0050621; Antimicrob. Agents Chemother., 2022, 66, e0221221; PLoS Med., 2019, 16, e1002773; ACS Infect. Dis., 2016, 2, 251-267). The experiment was repeated twice independently, yielding similar results. A representative example is shown. Dots and error bars represent means and standard deviations of three technical replicates, respectively. Horizontal dotted lines indicate the cutoff for 1 log reduction in CFU compared to 10-day drug-free control culture. The cMBC90 values shown in Table 16 are the drug concentrations that reduce CFU by 90% relative to the CFU of drug-free controls at day 10. Since the cultures were in the stationary phase on day 5 when drug treatment started, the CFUs of the drug-free cultures at day 10 were similar to the CFUs of the drug-free cultures at day 5 (FIG. 28).
as §2, with “(doi: 10.1128/mbio.00598-23).” for “(mBio, 2023, 14, e0059823).”, “(doi: 10.1128/mbio.00598-23),” for “(mnBio, 2023, 14, e0059823),”, “CFU/mL)” for “CFU/mL, represented by circle, square, and triangle indicators respectively)”, “curves for the drugs,” for “curves,”, “used.” for “used (resulting in the middle curve with square indicators). Arrows indicate the time points when drugs were added and the end of the treatment.”, “results.” for “results. A representative example is shown. Dots and error bars represent means and standard deviations of three technical replicates, respectively.”
The experiment was repeated twice independently, yielding similar results. A representative example is shown. The cMBC90 values shown in Table 16 are the drug concentrations that reduce CFU by 90% relative to the CFU of drug-free controls at day 10. […]

Δarr M. abscessus = assay: MIC assay, isogenic arr-deleted strain; settings: arr-deleted strain; 90% growth inhibition
How it was run: as §1

M. abscessus Bamboo [2] = assay: Broth MBC90 (bMBC90)
From the text: Broth MIC, broth MBC90 (bMBC90), and caseum surrogate MBC90 ([…]) of clinically used antibiotics and of novel ADP-ribosylation-resistant rifabutin analogs against M. abscessus Bamboo have been evaluated.

M. abscessus Bamboo [3] = assay: MIC assay, clinical isolate Bamboo; settings: broth, M. abscessus Bamboo, Table 16, read-out: MIC
[4] = Mycobacteroides abscessus, 120 h
[5] = Mycobacteroides abscessus, 120 h, broth, 5 days

Q: How did the MIC (M. abscessus ATCC 19977; M. abscessus ATCC 19977, 90% growth inhibition, read-out: WT Mab MIC) turn out when `CO[C@H]1/C=C/O[C@@]2(C)Oc3c(C)c(O)c4c(c3C2=O)C2=NC3(CCN(CC(C)C)CC3)NC2=C(NC(=O)/C(C)=C/C=C/[C@H](C)[C@H](O)[C@@H](C)[C@@H](O)[C@@H](C)[C@H](OC(=O)c2cncnc2)[C@@H]1C)C4=O` [5n, 25-O-(5-pyrimidinecarbonyl)-25-O-desacetyrifabutin] was run?
A: 0.018 µM (≈ 0.0164 µg/mL)

Q: And the MIC ratio (M. abscessus ATCC 19977; WT MIC/Δarr strain MIC)?
A: 0.72

Q: What about the cMBC90/bMBC90 (M. abscessus Bamboo [1]; 5-day assays) of the same compound?
A: 5

Q: And the MBC (M. abscessus Bamboo [1]; caseum surrogate, 5 days, 90% CFU reduction vs drug-free control)?
A: 0.65 µM (≈ 0.592 µg/mL)

Q: What about the “Δarr Mab MIC” value (Δarr M. abscessus) of the same compound?
A: 0.025 µM

Q: And the MBC (M. abscessus Bamboo [2]; broth, 5 days)?
A: 0.13 µM (≈ 0.118 µg/mL)

Q: What about the MIC (M. abscessus Bamboo [3]) of the same compound?
A: 0.03 µM (≈ 0.0273 µg/mL)

Q: Which cMBC90/bMBC90 (M. abscessus Bamboo [1]; 5-day assays) does the source give for `NCC[C@H](O)C(=O)N[C@@H]1C[C@H](N)[C@@H](O[C@H]2O[C@H](CN)[C@@H](O)[C@H](O)[C@H]2O)[C@H](O)[C@H]1O[C@H]1O[C@H](CO)[C@@H](O)[C@H](N)[C@H]1O` [Amikacin] here?
A: 0.3

Q: And the MBC (M. abscessus Bamboo [1]; [4])?
A: 12 µM (≈ 7.03 µg/mL)

Q: And the MBC (M. abscessus Bamboo [2]; [5])?
A: 40 µM (≈ 23.4 µg/mL)

Q: And the MIC (M. abscessus Bamboo [3]; Mycobacteroides abscessus)?
A: 25 µM (≈ 14.6 µg/mL)

Q: With `COc1nc2ccc(Br)cc2cc1[C@@H](c1ccccc1)[C@@](O)(CCN(C)C)c1cccc2ccccc12` [Bedaquiline, bedaquiline] as the compound, how does the cMBC90/bMBC90 (M. abscessus Bamboo [1]; 10-day assays) read?
A: 33.5

Q: And the MBC (M. abscessus Bamboo [1]; Mycobacteroides abscessus, 240 h, caseum surrogate, assay extended to 10 days)?
A: 67 µM (≈ 37.2 µg/mL)

Q: What about the MBC (M. abscessus Bamboo [2]; Mycobacteroides abscessus, 240 h, assay extended to 10 days) of the same compound?
A: 2 µM (≈ 1.11 µg/mL)

Q: And the MIC (M. abscessus Bamboo [3]; Mycobacteroides abscessus)?
A: 0.4 µM (≈ 0.222 µg/mL)

Q: With `CO[C@@]1(NC(=O)Cc2cccs2)C(=O)N2C(C(=O)O)=C(COC(N)=O)CS[C@@H]21` [Cefoxitin, cefoxitin] as the compound, how does the cMBC90/bMBC90 (M. abscessus Bamboo [1]; 5-day assays) read?
A: 0.78

Q: What about the MBC (M. abscessus Bamboo [1]; [4]) of the same compound?
A: 35 µM (≈ 15 µg/mL)

Q: And the MBC (M. abscessus Bamboo [2]; [5])?
A: 45 µM (≈ 19.2 µg/mL)

Q: And the MIC (M. abscessus Bamboo [3]; Mycobacteroides abscessus)?
A: 29 µM (≈ 12.4 µg/mL)

Q: For `CC(C)/N=c1\cc2n(-c3ccc(Cl)cc3)c3ccccc3nc-2cc1Nc1ccc(Cl)cc1` [Clofazimine, clofazimine], which MBC (M. abscessus Bamboo [1]; [4]) is on record?
A: > 128 µM

Q: And the MBC (M. abscessus Bamboo [2]; [5])?
A: > 128 µM

Q: And the MIC (M. abscessus Bamboo [3]; Mycobacteroides abscessus)?
A: 12.5 µM (≈ 5.92 µg/mL)

Q: What does the source list for `C[C@@H](O)[C@H]1C(=O)N2C(C(=O)O)=C(SCCN=CN)C[C@H]12` [Imipenem, imipenem]?
A: cMBC90/bMBC90 (M. abscessus Bamboo [1]; 5-day assays): 2.3; MBC (M. abscessus Bamboo [1]; [4]): 42 µM (≈ 12.6 µg/mL); MBC (M. abscessus Bamboo [2]; [5]): 18 µM (≈ 5.39 µg/mL); MIC (M. abscessus Bamboo [3]; Mycobacteroides abscessus): 10 µM (≈ 2.99 µg/mL)

Q: `CC(=O)NC[C@H]1CN(c2ccc(N3CCOCC3)c(F)c2)C(=O)O1` [Linezolid, linezolid] was tested. Which cMBC90/bMBC90 (M. abscessus Bamboo [1]; 5-day assays) did it give?
A: 16

Q: What about the MBC (M. abscessus Bamboo [1]; [4]) of the same compound?
A: 512 µM (≈ 173 µg/mL)

Q: What about the MBC (M. abscessus Bamboo [2]; [5]) of the same compound?
A: 32 µM (≈ 10.8 µg/mL)

Q: And the MIC (M. abscessus Bamboo [3]; Mycobacteroides abscessus)?
A: 25 µM (≈ 8.43 µg/mL)
